Test system: MPO activity
Assay: MR imaging of CFA-induced subcutaneous inflammation
Format: in vivo
Settings: wild-type mice, 0.3 mmol/kg

In the case of `CNC[C@H](O)[C@@H](O)[C@H](O)[C@H](O)CO.O=C([O-])CN1CCN(CC(=O)[O-])CCN(CC(=O)O)CCN(CC(=O)[O-])CC1.[Gd+3]` [DOTA-Gd, gadoterate meglumine], the “Course of CNR over 60 min” value is reported as “decreased rapidly over time”.
